Reference: patent US7030287B2, “Method of decreasing nitrate nitrogen and volatile organic compound in soil and groundwater” (Matsushita Electric Industrial Co., Ltd., priority 2001, dated 2006)

How the values were obtained:
[1] = Column experiment (Example 3): nitrate-polluted well water passed through column filled with material; settings: well water (nitrate nitrogen 14 mg/L) after column, passing time 5.5 hours, 21° C.
Excerpt: FIG. 3 is a view showing the structure of a column experiment apparatus used for effecting the method of decreasing nitrate nitrogen and volatile organic compounds in Example 3. Here, the column is a vessel having a function of decreasing nitrate nitrogen and volatile organic compounds, and decreases nitrate nitrogen and volatile organic compounds by allowing groundwater such as well water and the like to pass. In Example 3, a resin column having a diameter of 28 cm and a height of 2 m was used.
Well water evacuated from a well 23 by a pump 24 flow into this column 21 through an introduction port 25 of the column 21. It is so constituted that well water which comes into with the experiment material 22 while rising in the column 21, is discharged from an outflow port 26 formed at the upper part of the column 21.
Column experiments were conducted as described below using the column experiment apparatus constituted as described above.
From already-provided well polluted with nitrate nitrogen (nitrate nitrogen concentration: 14 mg/L), well water was evacuated by a pump 24 and allowed to flow into the column 21. In Example 3, six resin columns having a diameter of 28 cm and a height of 2 m were used, and experiments were conducted on 12 kinds of experiment materials using the resin columns each twice.
In the examples, experiment materials of the present invention such as fatty acids and alcohols were filled in columns (column Nos. 1 to 8) and comparative materials of conventional technologies were filled in columns (column Nos. 9 to 12) for comparison, and the evacuated groundwater was passed through them. In these experiments, substantial filling heights of the experiment materials in the columns were all 1.8 m. The passing time of groundwater in the column was 5.5 hours, and the average environment temperature during the experiment period was 21° C.
The nitrate nitrogen concentration, ammonia nitrogen concentration and total carbon concentration of the well water after passing through the column 30 days after initiation of passing of well water which is experiment initiation were measured.

[2] = Well experiment in soil polluted with tetrachloroethylene (Example 8): analysis of water collected from the well; settings: 30 kg added over 6 days, initial about 0.25 mg/L
Method: In the method of decreasing nitrate nitrogen and volatile organic compounds in Example 8, an experiment was conducted using a well provided in soil polluted with tetrachloroethylene.
It had been known by previous investigation that about 125 m^2 of the surface of soil was polluted, and a water-containing layer at a position 6 m below the ground surface was polluted. In this water-containing layer, the tetrachloroethylene concentration was about 0.25 mg/L.
30 kg of stearylamine was gradually added over 6 days through a well in the polluted soil, and the tetrachloroethylene concentration, total carbon concentration and total nitrogen concentration after 90 days were analyzed from water collected from the well.

Molecule | Nitrate nitrogen concentration after 30 days [1] [mg/L] | tetrachloroethylene concentration after 90 days [2] [mg/L]
CCCCCCCCCCCCCCCCCCCCCC(=O)O [Behenic acid] | 1.8 | –
CCCCCCCCCCCCCCCCCC(=O)OC [Methyl stearate] | 1.4 | –
CCCCCCCCCCCCCCO [Myristyl alcohol] | 2.5 | –
OC[C@H]1O[C@@](CO)(O[C@H]2O[C@H](CO)[C@@H](O)[C@H](O)[C@H]2O)[C@@H](O)[C@@H]1O [Sucrose, reference compound] | 15.0 | –
CCCCCCCCCCCCCCCCCCN [stearylamine] | – | 0.08
Sorbitan monomyristate | 1.6 | –
